Measurements: US8754073B2, “Substituted piperazino-dihydrothienopyrimidines” (Boehringer Ingelheim International GmbH, priority 2007, dated 2014)

biological target: PDE4B (Homo sapiens, UniProt Q07343); test: Scintillation Proximity Assay (SPA) of PDE4B enzyme activity ([H3]-cAMP cleavage); assay type: biochemical; details: test substance 1 μM; one-hour incubation of [H3]-cAMP with PDE4B enzyme at 30° C.
Method in brief: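 SPA read-out: [H3]-cAMP incubated with PDE4B in assay buffer for 1 h at 30 °C, with and without test compound at 1 μM. Reaction stopped by adding yttrium silicate beads that bind the [H3]-AMP product; after 45 min settling, scintillation counted. Value is % inhibition at 1 μM.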

Sequence of PDE4B (Q07343 whole entry, species assumed): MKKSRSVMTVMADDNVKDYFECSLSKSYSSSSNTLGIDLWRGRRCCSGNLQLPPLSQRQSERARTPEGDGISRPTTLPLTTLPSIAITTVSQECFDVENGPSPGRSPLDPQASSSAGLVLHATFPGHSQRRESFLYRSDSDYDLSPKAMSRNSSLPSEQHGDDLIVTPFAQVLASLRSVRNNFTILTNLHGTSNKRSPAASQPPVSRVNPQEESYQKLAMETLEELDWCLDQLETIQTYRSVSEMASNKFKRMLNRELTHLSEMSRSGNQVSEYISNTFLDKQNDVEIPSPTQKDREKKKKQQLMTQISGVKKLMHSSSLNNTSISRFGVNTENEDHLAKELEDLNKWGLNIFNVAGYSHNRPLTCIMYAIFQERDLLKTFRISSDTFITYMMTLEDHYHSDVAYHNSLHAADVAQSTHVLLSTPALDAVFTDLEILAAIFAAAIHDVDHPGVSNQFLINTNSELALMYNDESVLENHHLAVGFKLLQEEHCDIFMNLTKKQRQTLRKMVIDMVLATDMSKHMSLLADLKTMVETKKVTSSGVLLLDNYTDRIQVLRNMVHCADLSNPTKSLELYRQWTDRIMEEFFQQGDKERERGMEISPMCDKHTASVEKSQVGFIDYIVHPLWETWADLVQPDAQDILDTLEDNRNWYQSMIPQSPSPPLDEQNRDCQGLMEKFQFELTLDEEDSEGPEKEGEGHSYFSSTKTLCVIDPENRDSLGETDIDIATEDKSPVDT

[O-][S+]1CCc2nc(N3CCC(c4ccc(C(F)(F)F)cc4)CC3)nc(NC3CCOCC3)c21 (stereo not shown) [Example 96, {5-Oxo-2-[4-(4-Trifluoromethylphenyl)-Piperidin-1-Yl]-6,7-Dihydro-5H-5λ^4-Thieno[3,2-d]Pyrimidin-4-Yl}-(Tetrahydropyran-4-Yl)-Amine] and [O-][S+]1CCc2nc(N3CCC(c4ccc(Br)cc4)CC3)nc(NC3CCOCC3)c21 (stereo not shown) [Example 93, {2-[4-(4-Bromophenyl)-Piperidin-1-Yl]-5-Oxo-6,7-Dihydro-5H-5λ^4-Thieno[3,2-d]Pyrimidine-4-Yl}-(Tetrahydropyran-4-Yl)-Amine] are the same in inhibition at 1 µM: 94% for the first, 94% for the second.

First: COc1ccc(C2CCN(c3nc4c(c(NC5CCOCC5)n3)[S+]([O-])CC4)CC2)cc1 (stereo not shown) [Example 117]
Second: [O-][S+]1CCc2nc(N3CCC(c4cc(Cl)cc(Cl)c4)CC3)nc(NC3CCOCC3)c21 (stereo not shown) [Example 97, {2-[4-(3,5-Dichlorophenyl)-Piperidin-1-Yl]-5-Oxo-6,7-Dihydro-5H-5λ^4-Thieno[3,2-d]Pyrimidin-4-Yl}-(Tetrahydropyran-4-Yl)-Amine]
The inhibition at 1 µM of the first is higher: 94% for the first, 93% for the second.

Compared with Cc1noc(C2CCN(c3nc4c(c(Nc5cccc(F)c5)n3)[S+]([O-])CC4)CC2)n1 (stereo not shown) [Example 83], [O-][S+]1CCc2nc(N3CCC(c4nnc5ccccn45)CC3)nc(Nc3cccc(F)c3)c21 (stereo not shown) [Example 139] is lower in inhibition at 1 µM: 96% for the first, 94% for the second.

Going from COC(=O)c1cccc(C2CCN(c3nc4c(c(NC5(CO)CC5)n3)[S+]([O-])CC4)CC2)c1 (stereo not shown) [Example 104] to [O-][S+]1CCc2nc(N3CCC(c4cccc(Cl)c4)CC3)nc(NC3(CO)CC3)c21 (stereo not shown) [Example 39], the inhibition at 1 µM rises from 95% to 96%.

First: O=C1Nc2ccccc2C2(CCN(c3nc4c(c(NC5CCOCC5)n3)[S+]([O-])CC4)CC2)N1 (stereo not shown) [Example 66]
Second: CN1C[C@@H](Nc2nc(N3CCC4(CC3)CN(S(C)(=O)=O)c3ccccc34)nc3c2[S+]([O-])CC3)CCC1=O (stereo partly shown) [Example 44]
The inhibition at 1 µM of the first is lower: 62% for the first, 95% for the second.

CC(C)[C@H](CO)Nc1nc(N2CCC(c3nnc(-c4ccc(F)cc4)o3)CC2)nc2c1[S+]([O-])CC2 (stereo partly shown) [Example 159] and CC(C)[C@H](CO)Nc1nc(N2CCC(c3ccc(C#N)cc3)CC2)nc2c1[S+]([O-])CC2 (stereo partly shown) [Example 20] are the same in inhibition at 1 µM: 94% for the first, 94% for the second.

Compared with CC(C)[C@H](CO)Nc1nc(N2CCC(c3cccc(C#N)c3)CC2)nc2c1[S+]([O-])CC2 (stereo partly shown) [Example 154], N#Cc1cccc(C2CCN(c3nc4c(c(NC5(CO)CC5)n3)[S+]([O-])CC4)CC2)c1 (stereo not shown) [Example 107] is higher in inhibition at 1 µM: 92% for the first, 94% for the second.

N#CC1(c2ccccc2)CCN(c2nc3c(c(NC4(CO)CC4)n2)[S+]([O-])CC3)CC1 (stereo not shown) [Example 40] and [O-][S+]1CCc2nc(N3CCC(c4nc(-c5cccnc5)no4)CC3)nc(NC3(CO)CC3)c21 (stereo not shown) [Example 115] are the same in inhibition at 1 µM: 94% for the first, 94% for the second.

Going from [O-][S+]1CCc2nc(N3CCC(c4nc(-c5ccncc5)no4)CC3)nc(NC3CCOCC3)c21 (stereo not shown) [Example 132] to [O-][S+]1CCc2nc(N3CCC(c4cccc(O)c4)CC3)nc(Nc3cccc(F)c3)c21 (stereo not shown) [Example 76], the inhibition at 1 µM rises from 95% to 97%.

[O-][S+]1CCc2nc(N3CCC(c4cccc(Cl)c4)CC3)nc(Nc3cccc(F)c3)c21 (stereo not shown) [Example 84] gave an inhibition at 1 µM of 95%.

same assay, conditions: test substance 1 μM; one-hour incubation with [H3]-cAMP at 30° C.

Compared with CN(C(=O)c1cccc(C2CCN(c3nc4c(c(NC5CCOCC5)n3)[S+]([O-])CC4)CC2)c1)C1CC1 (stereo not shown) [Example 249, N-cyclopropyl-N-methyl-3-{1-[5-oxo-4-(tetrahydropyran-4-ylamino)-6,7-dihydro-5H-5λ^4-thieno[3,2-d]pyrimidin-2-yl]-piperidin-4-yl}-benzamide], [O-][S+]1CCc2nc(N3CCC(c4nc5cccnc5[nH]4)CC3)nc(NC3CCOCC3)c21 (stereo not shown) [Example 207] is higher in inhibition at 1 µM: 93% for the first, 95% for the second.

First: CN1C[C@@H](Nc2nc(N3CCC(C(=O)c4ccc(F)cc4)(c4ccc(F)cc4)CC3)nc3c2[S+]([O-])CC3)CCC1=O (stereo partly shown) [Example 203, 5-{2-[4-(4-fluorobenzoyl)-4-(4-fluorophenyl)-piperidin-1-yl]-5-oxo-6,7-dihydro-5H-5λ^4-thieno[3,2-d]pyrimidin-4-ylamino}-1-methylpiperidin-2-one]
Second: CN1C[C@@H](Nc2nc(N3CCC(O)(c4ccc(Cl)cc4)CC3)nc3c2[S+]([O-])CC3)CCC1=O (stereo partly shown) [Example 254]
The inhibition at 1 µM of the first is higher: 96% for the first, 92% for the second.

Cc1oc(C2CCN(c3nc4c(c(N[C@H]5CCC(=O)N(C)C5)n3)[S+]([O-])CC4)CC2)nc1-c1ccccc1 (stereo partly shown) [Example 275, 1-methyl-5-{2-[4-(5-methyl-4-phenyloxazol-2-yl)-piperidin-1-yl]-5-oxo-6,7-dihydro-5H-5λ^4-thieno[3,2-d]pyrimidin-4-ylamino}-piperidin-2-one] and CN1C[C@@H](Nc2nc(N3CCC(c4nc(-c5ccccc5)c(-c5ccccc5)o4)CC3)nc3c2[S+]([O-])CC3)CCC1=O (stereo partly shown) [Example 278, 5-{2-[4-(4,5-diphenyloxazol-2-yl)-piperidin-1-yl]-5-oxo-6,7-dihydro-5H-5λ^4-thieno[3,2-d]pyrimidin-4-ylamino}-1-methylpiperidin-2-one] are the same in inhibition at 1 µM: 95% for the first, 95% for the second.

Compared with CC(C)[C@H](CO)Nc1nc(N2CCC(COCc3ccccc3)(c3ccc(Cl)cc3)CC2)nc2c1[S+]([O-])CC2 (stereo partly shown) [Example 307], CC(=O)NCC1(c2ccccc2)CCN(c2nc3c(c(N[C@H]4CCC(=O)N(C)C4)n2)[S+]([O-])CC3)CC1 (stereo partly shown) [Example 204, N-{1-[4-(1-methyl-6-oxopiperidin-3-ylamino)-5-oxo-6,7-dihydro-5H-5λ^4-thieno[3,2-d]pyrimidin-2-yl]-4-phenylpiperidin-4-ylmethyl}-acetamide] is higher in inhibition at 1 µM: 89% for the first, 96% for the second.

Going from [O-][S+]1CCc2nc(N3CCC(c4cc(-c5cccs5)[nH]n4)CC3)nc(NC3(CO)CC3)c21 (stereo not shown) [Example 285] to [O-][S+]1CCc2nc(N3CCC(c4nc(-c5ccccc5)no4)CC3)nc(NC3(CO)CC3)c21 (stereo not shown) [Example 311], the inhibition at 1 µM rises from 90% to 91%.

Going from CN1C[C@@H](Nc2nc(N3CCC(Oc4ccc(F)cc4)CC3)nc3c2[S+]([O-])CC3)CCC1=O (stereo partly shown) [Example 169] to CC(C)c1ccc(OC2CCN(c3nc4c(c(N[C@H]5CCC(=O)N(C)C5)n3)[S+]([O-])CC4)CC2)cc1 (stereo partly shown) [Example 267], the inhibition at 1 µM falls from 92% to 78%.

Going from COCC(=O)N(C)CC1(c2ccccc2)CCN(c2nc3c(c(NC4CCOCC4)n2)[S+]([O-])CC3)CC1 (stereo not shown) [Example 323, 2-methoxy-N-methyl-N-{1-[5-oxo-4-(tetrahydropyran-4-ylamino)-6,7-dihydro-5H-5λ^4-thieno[3,2-d]pyrimidin-2-yl]-4-phenylpiperidin-4-ylmethyl}-acetamide] to [O-][S+]1CCc2nc(N3CCC(Oc4ccc(Cl)cc4)CC3)nc(NC3CCOCC3)c21 (stereo not shown) [Example 271], the inhibition at 1 µM falls from 94% to 92%.

CN1C[C@@H](Nc2nc(N3CCC(c4nc5ccc(Cl)cc5o4)CC3)nc3c2[S+]([O-])CC3)CCC1=O (stereo partly shown) [Example 194, 5-{2-[4-(6-Chlorbenzoxazol-2-yl)-piperidin-1-yl]-5-oxo-6,7-dihydro-5H-5λ^4-thieno[3,2-d]pyrimidin-4-ylamino}-1-methylpiperidin-2-one] showed an inhibition at 1 µM of 97%.
